These results are taken from ChEMBL document CHEMBL1201862, “PubChem BioAssay data set” (2004).

SMILES strings stand for the structures. Active and inactive are the calls of the source. Where only a bound is given, the exact number is not on record here.

The nature of assay [1]: Luminescent dose response cell-based high throughput screening assay for inhibitors of the Janus kinase 2 mutant JAK2V617F. [Related pubchem assays: 1446 (Primary screen.), 1521 (Confirmation assay.), 1486 (Counter screen.)]. It counts as functional.
The nature of assay [2]: Trypanosoma cruzi growth suppression in host cells – NIH3T3 host cells, beta-gal luminescence, confirmation (AID 2044).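 Note: intracellular parasites grown in NIH/3T3 mouse fibroblasts as host cells; luminescent beta-galactosidase reporter signal from transgenic T. cruzi replicating inside host cells; inhibitors lower the luminescence signal.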 It counts as functional, cell-based.
Assay [3] has as its target Sphingosine 1-phosphate receptor 2 (Homo sapiens, UniProt O95136). Nature of the assay: Dose Response Cell Based Assay for Antagonists of the S1P2 Receptor. [Related pubchem assays: 856, 736 ]. It counts as functional.
For assay [4], the target named is T1, Protein RecA (Mycobacterium tuberculosis, UniProt P9WHJ3).
T1 sequence (P9WHJ3 whole entry): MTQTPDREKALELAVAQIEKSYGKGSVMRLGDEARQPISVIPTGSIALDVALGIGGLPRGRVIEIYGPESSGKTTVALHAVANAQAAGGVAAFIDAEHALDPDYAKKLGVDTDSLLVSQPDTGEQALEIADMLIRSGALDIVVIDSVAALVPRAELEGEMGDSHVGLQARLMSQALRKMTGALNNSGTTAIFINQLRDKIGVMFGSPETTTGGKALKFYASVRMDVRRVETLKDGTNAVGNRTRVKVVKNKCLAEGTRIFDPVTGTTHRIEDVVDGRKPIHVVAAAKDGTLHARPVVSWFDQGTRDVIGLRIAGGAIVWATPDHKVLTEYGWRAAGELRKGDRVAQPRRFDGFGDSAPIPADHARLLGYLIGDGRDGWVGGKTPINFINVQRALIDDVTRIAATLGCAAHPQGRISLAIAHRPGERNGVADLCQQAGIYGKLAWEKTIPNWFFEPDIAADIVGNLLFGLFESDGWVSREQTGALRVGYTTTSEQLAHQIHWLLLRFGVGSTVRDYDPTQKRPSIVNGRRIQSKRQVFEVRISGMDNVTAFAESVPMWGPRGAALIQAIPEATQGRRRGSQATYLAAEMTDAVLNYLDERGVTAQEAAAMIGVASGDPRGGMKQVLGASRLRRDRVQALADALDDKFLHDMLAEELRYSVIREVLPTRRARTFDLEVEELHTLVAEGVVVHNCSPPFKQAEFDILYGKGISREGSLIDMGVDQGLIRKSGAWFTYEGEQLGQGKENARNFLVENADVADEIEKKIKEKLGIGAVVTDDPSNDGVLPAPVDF
Nature of the assay: Fluorescence Cell-Free Homogeneous Dose Retest to Identify Inhibitors of RecA-Intein Splicing Activity. [Related pubchem assays (depositor defined):AID2097, AID2223, AID489010, AID492950]. It counts as functional.

The nature of assay [5]: NIH3T3 cell viability loss – ATP luminescence, mouse fibroblasts, counter-screen, dose response (AID 2010).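 Note: cells exposed to compound for about 90 hours before reading.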 It counts as functional, cell-based.
The target of assay [6] is T2, Replicative DNA helicase DnaB (Mycobacterium tuberculosis, UniProt P9WMR3).
T2 sequence (P9WMR3 whole entry): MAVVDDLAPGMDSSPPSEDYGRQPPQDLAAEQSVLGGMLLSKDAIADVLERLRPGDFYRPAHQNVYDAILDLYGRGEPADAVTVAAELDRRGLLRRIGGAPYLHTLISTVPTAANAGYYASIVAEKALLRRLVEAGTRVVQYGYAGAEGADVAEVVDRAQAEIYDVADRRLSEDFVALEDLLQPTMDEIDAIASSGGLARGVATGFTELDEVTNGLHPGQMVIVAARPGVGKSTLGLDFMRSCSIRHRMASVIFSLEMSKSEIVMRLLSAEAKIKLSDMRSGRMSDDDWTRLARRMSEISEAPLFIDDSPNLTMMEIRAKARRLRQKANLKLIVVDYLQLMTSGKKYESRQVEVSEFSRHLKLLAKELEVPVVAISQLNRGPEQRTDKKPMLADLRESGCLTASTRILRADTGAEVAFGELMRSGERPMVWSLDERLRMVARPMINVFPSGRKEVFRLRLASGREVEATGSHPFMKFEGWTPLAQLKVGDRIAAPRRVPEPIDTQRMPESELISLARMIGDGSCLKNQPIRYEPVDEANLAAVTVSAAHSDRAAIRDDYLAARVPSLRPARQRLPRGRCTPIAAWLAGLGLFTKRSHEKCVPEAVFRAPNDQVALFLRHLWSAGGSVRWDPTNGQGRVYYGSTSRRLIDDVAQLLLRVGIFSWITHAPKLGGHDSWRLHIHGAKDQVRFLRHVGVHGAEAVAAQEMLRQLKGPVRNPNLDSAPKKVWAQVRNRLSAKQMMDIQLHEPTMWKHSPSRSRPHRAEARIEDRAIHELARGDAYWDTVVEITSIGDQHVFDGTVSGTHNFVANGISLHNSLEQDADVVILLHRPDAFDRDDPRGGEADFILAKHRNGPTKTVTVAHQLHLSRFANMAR
The assay can be described thus: DnaB intein splicing inhibitors, dose response, biochemical, cell-free fluorescence (AID 449749). It counts as functional.

Assay [7] can be described thus: fluconazole-exposed Candida albicans growth modulators – fluorescence, retest, confirmation (AID 2467). It counts as functional, cell-based.
A short description of assay [8]: NIH-3T3 fibroblast cytotoxicity, dose response, cytotoxicity control, cell-based, fluorescence, Alamar Blue, secondary assay (AID 2327).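 Note: NIH-3T3 mouse fibroblasts cultured with fluconazole at 8 µg/mL.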 It counts as functional.
Assay [9] deals with HeLa. Nature of the assay: Cytotoxicity counterscreen assay for transcriptional activators of heat shock protein 70 (Hsp70). [Related pubchem assays: 1203, 1252 ]. The note with it: Homo sapiens. It counts as functional.
For assay [10], the system named is INS1. The assay can be described thus: INS-1E survival protection against cytokine death – cell-based, luminescence, retest, dose response (AID 449756).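 Note: cell death triggered by IL-1 beta plus TNF-alpha plus IFN-gamma mixture; protective hits raise ATP signal compared with cytokine alone wells.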 It counts as functional. The note with it: Rattus norvegicus.
Assay [11] deals with HEK293. The assay can be described thus: Fluorescence-based counterscreen for potentiators or agonists of NPY-Y2: cell-based high-throughput dose response assay to identify inhibitors of cyclic nucleotide gated ion channel (CNGC) activity. In this assay, the parental HEK293 cell line transfected with a cyclic-nucleotide gated ion channel (CNGC)-based cAMP sensor is used to measure inhibition of isoproterenol-induced CNGC activity by test compound. The note with it: Homo sapiens. It counts as functional. For orientation: Counterscreens check selectivity or assay interference.

The target in assay [12] is T3, Neuropeptide Y receptor type 2 (Homo sapiens, UniProt P49146).
T3 sequence (P49146 whole entry): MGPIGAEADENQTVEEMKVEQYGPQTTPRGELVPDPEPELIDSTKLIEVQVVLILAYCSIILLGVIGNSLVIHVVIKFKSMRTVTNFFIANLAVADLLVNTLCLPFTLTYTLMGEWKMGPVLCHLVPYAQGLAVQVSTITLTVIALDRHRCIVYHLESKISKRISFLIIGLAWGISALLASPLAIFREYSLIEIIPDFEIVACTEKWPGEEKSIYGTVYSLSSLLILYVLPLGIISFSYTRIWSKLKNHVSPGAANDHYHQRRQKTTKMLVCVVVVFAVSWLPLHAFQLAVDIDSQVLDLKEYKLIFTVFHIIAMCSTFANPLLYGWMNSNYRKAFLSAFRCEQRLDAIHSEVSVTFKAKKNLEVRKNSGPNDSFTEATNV
Nature of the assay: Fluorescence-based cell-based high-throughput dose response assay for agonists of NPY-Y2. [Related pubchem assays: 1703 (Screening assay (CNGC inhibitors).), 1359 (Screening assay (NPY-Y2 potentiators or agonists).), 1304 (Screening assay (NPY-Y1 potentiators or agonists).), 1710 (Screening assay (NPY-Y2 agonists).), 1791 (Summary AID.)]. It counts as functional.

The target of assay [13] is T4, Neuropeptide Y receptor type 1 (Homo sapiens, UniProt P25929).
T4 sequence (P25929 whole entry): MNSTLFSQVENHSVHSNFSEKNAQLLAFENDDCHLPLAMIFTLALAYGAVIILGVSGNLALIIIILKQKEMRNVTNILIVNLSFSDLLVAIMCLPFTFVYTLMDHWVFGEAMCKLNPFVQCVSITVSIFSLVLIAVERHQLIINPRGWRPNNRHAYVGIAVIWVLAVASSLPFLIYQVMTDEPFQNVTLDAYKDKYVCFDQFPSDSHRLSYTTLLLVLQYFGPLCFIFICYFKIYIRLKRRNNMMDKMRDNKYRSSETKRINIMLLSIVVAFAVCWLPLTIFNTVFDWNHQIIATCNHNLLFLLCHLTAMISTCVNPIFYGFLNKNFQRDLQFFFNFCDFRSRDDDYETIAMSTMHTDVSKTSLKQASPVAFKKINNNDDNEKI
Nature of the assay: Fluorescence-based counterscreen for agonists of NPY-Y2: cell-based high-throughput dose response assay for agonists of NPY-Y1. It counts as functional.
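Throughout, for CC50: cells exposed to compound for 16 hours before readout.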

Sphingosine 1-phosphate receptor 2, sequence (O95136 whole entry): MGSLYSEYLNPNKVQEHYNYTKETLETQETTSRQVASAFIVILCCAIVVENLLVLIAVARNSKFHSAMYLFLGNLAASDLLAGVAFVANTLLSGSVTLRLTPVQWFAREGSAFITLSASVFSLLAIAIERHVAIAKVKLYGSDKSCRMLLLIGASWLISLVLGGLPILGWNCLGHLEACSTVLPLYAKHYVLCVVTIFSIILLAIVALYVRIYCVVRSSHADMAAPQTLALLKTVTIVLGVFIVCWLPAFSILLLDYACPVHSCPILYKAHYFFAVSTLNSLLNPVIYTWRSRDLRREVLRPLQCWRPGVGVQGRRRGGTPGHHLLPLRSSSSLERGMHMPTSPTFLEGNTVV

Regarding `O=C(OCn1ncc(Cl)c(Cl)c1=O)c1ccc(F)cc1`, the IC50 (commonly the concentration at which inhibition is half-maximal) was 0.351 µM (active) in [1] and 3.76 µM (active) in [3]. Besides, the EC50 (commonly the concentration giving half of the maximal effect) was 1.16 µM (active) in assay [2]; 0.938 µM (active) in [4]; 1.04 µM (active) in assay [5]; > 38 µM (not active) in assay [7]; 1.85 µM (inconclusive) in [8]. Besides, the AC50 (usually the concentration at which the activity in the assay is half-maximal) in assay [6] is 5.07 µM (active); in assay [10] it was 7.34 µM (active). The CC50 (in general, the concentration at which the toxic effect on the cells reaches its halfway point) in assay [9] is listed as 21.7 µM (not active).
As to `COc1ccc(N2CCN(CC(O)COc3ccccc3[N+](=O)[O-])CC2)cc1` (stereo not drawn), the EC50 was 2.43 µM (active) in [11], 12.3 µM (not active) in [12] and 9.49 µM (active) in [13].
